Test results taken from US6015877A, “Compounds for inhibition of proteolysis” (President and Fellows of Harvard College, priority 1996, dated 2000).
Where two headings read alike, the source gives them in different places. Each block holds one compound with its values, some of them ahead of it. Where no end group is shown, it is not given here. The star is where a group is joined. Farnesyl = CC(C)=CCC/C(C)=C/CC/C(C)=C/C*

Columns and labels:
[1] = biological target: T1, cysteine protease ICE (interleukin-1β converting enzyme) (Homo sapiens, UniProt P29466); settings: cited from earlier work
T1 sequence (P29466 120-297 limits assumed): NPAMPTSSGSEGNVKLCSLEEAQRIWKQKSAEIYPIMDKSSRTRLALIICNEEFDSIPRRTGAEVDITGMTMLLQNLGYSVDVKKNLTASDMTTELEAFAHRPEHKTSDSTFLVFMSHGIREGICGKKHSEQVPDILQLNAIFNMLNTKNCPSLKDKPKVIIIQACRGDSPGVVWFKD
T1 sequence (P29466 317-404 limits assumed): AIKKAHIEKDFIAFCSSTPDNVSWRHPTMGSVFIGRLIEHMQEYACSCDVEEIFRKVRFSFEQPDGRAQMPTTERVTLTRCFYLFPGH

[2] = test system: isoprenylated protein endoprotease; assay: Inhibition of the solubilized / partially purified enzyme by non-halomethyl ketone inhibitors; type: biochemical, bovine
[3] = biological target: T2, cysteine protease apopain (Homo sapiens, UniProt P42574); settings: cited from earlier work
T2 sequence (P42574 29-175 limits assumed): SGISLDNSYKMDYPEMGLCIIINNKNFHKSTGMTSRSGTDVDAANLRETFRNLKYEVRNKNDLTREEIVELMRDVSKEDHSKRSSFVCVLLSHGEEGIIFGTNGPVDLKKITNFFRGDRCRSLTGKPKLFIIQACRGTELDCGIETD
T2 sequence (P42574 176-277 limits assumed): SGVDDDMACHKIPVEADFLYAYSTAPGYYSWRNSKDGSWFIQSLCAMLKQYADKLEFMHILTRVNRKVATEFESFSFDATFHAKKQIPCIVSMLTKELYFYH

[4] = test system: second small proteolytic activity, apparent molecular mass approximately 60 kDa; assay: Inhibition of the second small peak of proteolytic activity (approximately 60 kDa) after gel filtration; type: biochemical, bovine
Description: These properties of CHAPSO make it ideal, among the detergents tested, for the solubilization of the endoprotease. […] It should be noted that a second small amount of proteolytic activity was also found with an apparent molecular mass of approximately 60 kDa, which amounted to approximately 10% of the major peak, but which chromatographed at a smaller molecular size than the major peak. This smaller peak was not investigate further, for several reasons. Quantitatively, it is not significant. […] It also is no known if the smaller peak of activity i s comprised of an endoproteolytic activity or is simply made up of nonspecific proteases. […] All further studies described here will be relevant to the major solubilized peak of activity.

[5] = test system: isoprenylated protein endoprotease; assay: Inhibition of the isoprenylated protein endoprotease by halomethyl ketones (preincubation, 20-fold dilution, Kitz-Wilson); type: biochemical, bovine; settings: for Ki: read-out: K1
Method: A typical procedure of inhibition is given here to illustrate the details of this procedure. A CHAPSO-solubilized protein preparation (2.5 mg/mL) or a partially […] protein preparation (0.17 mg/mL) was incubated with chloromethyl ketone inhibitors at 37° C. for 30 minutes. Aliquots were removed at timed intervals and diluted with assay buffer E for the solubilized preparation of with assay buffer D for the partially purified protein preparation in 20-fold. The final protein and substrate concentrations were 0.12 mg/mL (or 8.5 μg of partially purified protein preparation per milliliter) and 2.0 μM, respectively, except as otherwise noted; the residual enzyme activity was assayed as described above. TPCK and BFC-CMK were characterized by kinetic measurements. The bimolecular rate constant Kinh /K1 and pseudo-first-order kinetic rate constant Kinh were obtained using the Kitz-Wilson method (Kitz & Wilson, 1962). According to Kitz-Wilson method, the irreversible modification of an enzyme by an active-site directed inhibitor is given by [drawing 9] where K1 =[E]·[I]/[E·I] and -d([E]+[E·I])/dt=Kinh [E·I]. [I] and [E] are inhibitor and enzyme concentrations at a certain time, respectively. Under conditions here [I]>>[Eo ], which is the enzyme concentration at time zero, [I] is constant. Under conditions where the enzyme-inhibitor solution is extensively diluted before the assay, a simplified equation 2 can be obtained as follows: […]
To further establish the specificity of the inactivation process, several commercially available haloketones were studies as putative inactivators of the endoprotease. The structures of these analogs are shown and their activities are shown in Table V. In these studies, the solubilized protein material was preincubated with a chloromethyl ketone inhibitor at 284 μM (unless otherwise noted) for 30 minutes; then 2.5-μL aliquots of the incubated solution were taken and diluted 20-fold for assay of the residual enzyme activity. […] Save for the dipeptide derivatives (ZGGFCMK and ZAPFCMK) derived from TPCK, the other halomethyl ketones tested are virtually inert.
FIG. 16(A) Time-dependent inhibition. 16B Kitz-Wilson plot (the upper panel) for the inhibition of the isoprenylated protein endoprotease by TPCK. The inhibition studies were carried out at 37° C. using the solubilized endoprotease preparation. Aliquote of the inhibitor-enzyme solution were taken at interval times and diluted by a factor of 20, and the enzyme activity was assayed as described in Methods. (B) (the lower panel) the concentration-dependent inhibition of the endoprotease by TPCK. The inhibition studies were carried out at 37° C. The crude CHAPSO-solubilized endoprotease preparations (0.12 mg/mL) were preincubated for 60 min in 50 μL of buffer E in the presence of 284 μM TPCK or TLCK with 6% DMSO and 2% 2-propanol. After the incubation, the reaction solution was diluted by a factor of 20, and the remaining enzyme activity of the inhibitor-enzyme solution was assayed as described in Methods. Data were represented in mean from duplicate runs.

[6] = test system: protease of bovine liver microsomal membranes (isoprenylated protein endoprotease); assay: Inhibition of proteolysis of [3H]-AFC-val-ile-ser by peptides, calf liver microsomes; type: biochemical
Method: As expected, the proteolysis of [^3 H]-AFC-val-ile-ser or [^3 H]-(SEQ ID NO: 1) was inhibited by the dipeptide substrate (AFC-val) and by the tripeptide substrate (AFC-val-ile). Incubation of 4 μM substrate along with either 20 μM of the dipeptide or tripeptide led to an approximately 50% diminution in substrate cleavage.

[7] = test system: protease of bovine liver microsomal membranes (isoprenylated protein endoprotease); assay: Proteolysis of N-[3H]acetyl isoprenylated peptide substrates by calf liver microsomal membranes (N-[3H]-AFC formation, HPLC)
[8] = test system: stereospecific proteolytic enzymatic activity in dog pancreatic microsomes; assay: Proteolysis of tetrapeptide substrates by dog pancreatic microsomes; type: biochemical; settings: extended incubation conditions
Method: A similar stereospecific proteolytic enzymatic activity was also found in dog pancreatic microsomes. Under extended incubation conditions, where 54% of the tetrapeptide substrate 1 was cleaved by these microsomes, no proteolysis of D-AFC-val-ile-ser 2 could be detected (<1%).

[9] = test system: isoprenylated protein endoprotease; settings: 425 ng partially purified protein preparation in 50 μL
[10] = solubilized endoprotease preparation, 37° C., Kitz-Wilson
[11] = Table 1, same enzyme preparation, average of two determinations ±S.D.
[12] = calf liver microsomal membranes
[13] = former measurement, different microsome preparation from a different animal

inhibition of the endoprotease (in words) ([2]; 0.5 mM): insensitive
enzyme activity (%) detergent extract ([2]; inhibitor 0.11 mM, control 100): 113 ± 0%
enzyme activity (%) partially purified ([2]; inhibitor 0.5 mM, control 100): 103 ± 4%
Compound: CC(C)C[C@H](NC(=O)[C@H]1O[C@@H]1C(=O)O)C(=O)NCCCCN=C(N)N (relative stereo) [E-64, N-[N-(L-3-trans-carboxyoxiran-2-carbonyl)-L-leucyl]agmatine]
inhibition of ICE (in words) [1]: insensitive
inhibition of apopain (in words) [3]: not

inhibition of the endoprotease (in words) ([2]; 1 mM): not inhibited
enzyme activity (%) detergent extract ([2]; inhibitor 1 mM, control 100): 90 ± 10%
Compound: c1cnc2c(c1)ccc1cccnc12 [1,10-.phi., N,N'-phenanthroline]
effect on the major (primary) solubilized peak of activity (in words) ([2]; CHAPSO-solubilized enzyme after gel filtration): without effect on the primary peak of activity
inhibition of the smaller peak of proteolytic activity (in words) [4]: potently inhibited

Compound: NC(=O)CI [IAA, iodoacetamide]
inhibition of ICE (in words) [1]: inactivated
inhibition of the endoprotease (in words) ([2]; 0.4 mM): insensitive
inhibition of apopain (in words) [3]: inhibited

Compound: Cc1ccc(S(=O)(=O)N[C@@H](Cc2ccccc2)C(=O)CCl)cc1 [TPCK, Nα-tosyl-L-phenylalamine chloromethyl ketone]
enzyme activity (%) ([5]; 284 μM inhibitor, solubilized protein preincubated 30 minutes, diluted 20-fold, control 100): 43 ± 5%
regeneration of enzyme activity after gel filtration chromatography and 24-h dialysis (in words) ([5]; enzyme preincubated with TPCK): not regenerated
Ki [5]: ~1000 µM
inhibition / inactivation of the endoprotease (in words) ([5]; solubilized endoprotease): inhibit the endoprotease well
Kinh (s^-1) [5, 10]: (1.4 ± 0.6) × 10^-3 s^-1
Kinh /K1 [5, 10]: 1.28 ± 0.1 M⁻¹ s⁻¹
Ki [5, 10]: 1100 ± 500 µM
inhibition of ICE (in words) [1]: inactivated
inhibition of apopain (in words) [3]: not

Compound: AC-val-ile-ser: tetrapeptide substrate with the farnesyl moiety deleted (Ac-CVIS)
inhibition of tetrapeptide substrate processing (in words) ([6]; 5-fold excess over tetrapeptide substrate): did not interfere with the processing of the substrate

Km [7, 12]: 9.2 ± 0.21 µM
Km [7, 13]: 12.6 µM
Compound: N-Ac-S-all-trans-farnesyl-L-Cys-L-Val-L-Ile [AFC--Val--Ile (1)]
diminution in substrate cleavage ([6]; 20 μM peptide, 4 μM [3H]-AFC-val-ile-ser substrate): approximately 50%
Vmax [7, 11]: 57.7 ± 5 pmol/min/mg
Vmax [7, 12]: 58 ± 4.9 pmol/min/mg
substrate activity (in words) [7, 12]: substrates for the enzyme
Vmax [7, 13]: 65.6 pmol/min/mg

Compound: N-[^3 H]-acetyl-S-all-trans-farnesyl-D-Cys-L-Val-L-Ile-L-Ser [D-AFC-val-ile-ser]
tetrapeptide cleaved (proteolysis) [8]: < 1%
substrate activity (in words) [7, 12]: AFC formation did not occur

Compound: N-[^3 H]acetyl-S-farnesyl-L-cysteinyl-L-valyl-L-isoleucyl-L-methionine [AFC--Val--Ile--Met (9)]
Km [9]: 0.65 ± 0.08 µM
Vmax [9]: 1.96±0.07 nmol/(min-mg of protein)
Km [7, 11]: 2.96 ± 0.35 µM
Vmax [7, 11]: 126.3 ± 4.7 pmol/min/mg
substrate activity (in words) [7, 12]: good substrate

Km [7, 12]: 4.8 ± 0.6 µM
Compound: N-acetyl-S-farnesyl-L-cysteine-L-val-L-ile-L-ser (Ac-C(Farnesyl)VIS) [substrate 1]
tetrapeptide cleaved (proteolysis) [8]: 54%
Vmax [7, 12]: 0.236±0.008 nmol/min/mg protein
substrate activity (in words) [7, 12]: substrates for the enzyme
